Data taken from patent US20030170702A1, “Methods for polysome distribution analysis of mRNA's” (priority 2002, published 2003).

How the values were obtained:
[1] = target: T1, MultiScribe Reverse Transcriptase (Moloney murine leukemia virus, UniProt P03355); test: Inhibition of reverse transcription (RT) by heparin and sucrose, 32P-labeled primer extension; assay type: biochemical
T1 construct: MultiScribe Reverse Transcriptase; purchased ABI (Applied Biosystems Inc)
Protocol: (§1) We discovered that heparin and sucrose inhibit reverse transcription (RT) and polymerase chain reaction (PCR). To determine the level of heparin or sucrose that inhibits these reactions, RT and PCR reactions were performed at varying heparin and sucrose concentrations. Each reaction mixture contained 25 μL 2× SYBR Green PCR Master Mix (Applied Biosystems Inc), 0.25 μL MultiScribe Reverse Transcriptase at 50U/μl (ABI), 0.4 μL RNase Inhibitor at 20U/μl (ABI), 25 nM forward primer, 25 nM reverse primer, 10 μl RNA template, and enough water to bring the final reaction volume to 50 μl. For the RT reactions, E coli RNase P RNA was used as the RNA template, and 1.25 μl of each primer from a stock solution of 1 μM was used, giving a final primer concentration of 25 nM. The RNase P primers were RNASEP-F19 (5′-[…]-3′, SEQ ID NO: 1) and RNASEP-R278 (5′-[…]-3′, SEQ ID NO: 2). All primers were purchased from Integrated DNA Technologies, Inc. The 2× SYBR Green Master Mix contains Taq polymerase, nucleotides, buffer, and magnesium. These reaction mixtures were assembled in a Micro Amp Optical 96 well reaction plate (ABI).
To examine the reverse transcription efficiency in the presence of sucrose and heparin, the reverse primer specific for RNase P RNA was ^32P labeled, and used as the only source of reverse primer. The radiolabeled primer was extended using reverse transcription during an incubation at 48° C. for 30 minutes. The resultant DNA was isolated and separated on a 6% denaturing gel. After soaking and drying the gel, the ^32P labeled reverse transcription product was quantitated using the Cyclone Storage Phosphor System (Packard) and Optiquant Image Analysis Software (Packard). This software reports the intensity of a selected band on the gel in units called Digital Light Units (DLU). The number of DLUs is listed in the “Raw Activity” column in Table 1. The amounts of sucrose and heparin in the samples as well as the final concentration of sucrose (percent weight per volume, % w/v) and heparin in the RT reaction are also listed. The highest amount represents 30% sucrose (average of the amount in a typical sucrose gradient) and 1 mg/mL heparin (amount of heparin in a typical sucrose gradient fraction). The amount of reverse transcription activity (“% RT” column) is expressed as a percent of the activity in the presence of differing amounts of sucrose or heparin relative to the activity in the absence of these substances.

Taq polymerase = target: T2, Taq polymerase (Thermus aquaticus, UniProt P19821); test: Inhibition of PCR by heparin and sucrose, SYBR Green quantitation of amplicon; assay type: biochemical; details: for concentration that inhibits PCR efficiency: final concentration in PCR reaction, 35 cycles
T2 construct: purchased Applied Biosystems Inc
T2 sequence (P19821 whole entry): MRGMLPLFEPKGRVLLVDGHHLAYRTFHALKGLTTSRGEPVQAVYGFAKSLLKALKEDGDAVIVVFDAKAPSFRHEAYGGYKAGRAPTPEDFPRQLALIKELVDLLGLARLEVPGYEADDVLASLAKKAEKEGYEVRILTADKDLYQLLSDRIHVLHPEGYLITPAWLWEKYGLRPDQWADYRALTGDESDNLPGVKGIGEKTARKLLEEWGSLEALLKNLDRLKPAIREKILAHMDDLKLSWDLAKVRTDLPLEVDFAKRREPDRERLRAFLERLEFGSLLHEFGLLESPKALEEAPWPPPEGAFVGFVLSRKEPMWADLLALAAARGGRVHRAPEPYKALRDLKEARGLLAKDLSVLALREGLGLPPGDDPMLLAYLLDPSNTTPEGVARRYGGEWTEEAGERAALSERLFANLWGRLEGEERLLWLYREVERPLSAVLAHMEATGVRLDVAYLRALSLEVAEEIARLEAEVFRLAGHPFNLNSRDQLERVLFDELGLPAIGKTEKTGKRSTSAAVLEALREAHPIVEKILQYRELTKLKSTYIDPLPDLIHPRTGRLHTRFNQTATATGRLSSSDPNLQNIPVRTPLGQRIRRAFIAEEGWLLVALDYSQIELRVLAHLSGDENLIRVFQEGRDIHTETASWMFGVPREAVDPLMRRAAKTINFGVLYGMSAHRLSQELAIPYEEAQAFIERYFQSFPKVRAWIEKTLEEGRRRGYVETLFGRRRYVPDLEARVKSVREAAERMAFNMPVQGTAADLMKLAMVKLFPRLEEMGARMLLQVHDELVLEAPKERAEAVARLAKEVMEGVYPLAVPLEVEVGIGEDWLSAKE
Protocol: as §1
PCR reactions were also performed in the presence of varying amounts of heparin and sucrose. The plasmid pJA2′, which contains the DNA copy of the E coli RNase P RNA, was used as the template in these PCR reactions to generate both experimental and standard curves. Thirty-five cycles of PCR were performed in which the reaction mixture was incubated at 95° C. for 15 seconds for denaturation and 60° C. for one minute for annealing and extension. The reaction mixtures in the 96 well plate were loaded in the Gene Amp 5700 Sequence Detection System (ABI). This machine quantitates the amount of PCR product made after each cycle. A standard curve is generated with each reaction and used to calculate the quantity of the PCR product or amplicon for each experimental reaction. For the “Raw Activity” column in Table 2 the units are ng of DNA.

[2] = sucrose 0.001 % W/V final in RT reaction (0.04 % in sample)
[3] = sucrose 0.004 % W/V final in RT reaction (0.12 % in sample)
[4] = sucrose 0.014 % W/V final in RT reaction (0.37 % in sample)
[5] = sucrose 0.044 % W/V final in RT reaction (1.11 % in sample)
[6] = sucrose 0.133 % W/V final in RT reaction (3.33 % in sample)
[7] = sucrose 0.4 % W/V final in RT reaction (10 % in sample)
[8] = sucrose 1.2 % W/V final in RT reaction (30 % in sample)
[9] = sucrose 0.001 % w/v final in PCR reaction (0.04 % in sample)
[10] = sucrose 0.004 % w/v final in PCR reaction (0.12 % in sample)
[11] = sucrose 0.014 % w/v final in PCR reaction (0.37 % in sample)
[12] = sucrose 0.044 % w/v final in PCR reaction (1.11 % in sample)
[13] = sucrose 0.133 % w/v final in PCR reaction (3.33 % in sample)
[14] = sucrose 0.4 % w/v final in PCR reaction (10 % in sample)
[15] = sucrose 1.2 % w/v final in PCR reaction (30 % in sample)
[16] = heparin 0.002 ng/μL final in RT reaction (0.06 in sample)
[17] = heparin 0.012 ng/μL final in RT reaction (0.32 in sample)
[18] = heparin 0.064 ng/μL final in RT reaction (1.6 in sample)
[19] = heparin 0.32 ng/μL final in RT reaction (8 in sample)
[20] = heparin 1.6 ng/μL final in RT reaction (40 in sample)
[21] = heparin 8 ng/μL final in RT reaction (200 in sample)
[22] = heparin 40 ng/μL final in RT reaction (1000 in sample)
[23] = heparin 0.002 ng/μL final in PCR reaction (0.06 in sample)
[24] = heparin 0.012 ng/μL final in PCR reaction (0.32 in sample)
[25] = heparin 0.064 ng/μL final in PCR reaction (1.6 in sample)
[26] = heparin 0.32 ng/μL final in PCR reaction (8 in sample)
[27] = heparin 1.6 ng/μL final in PCR reaction (40 in sample)
[28] = heparin 8 ng/μL final in PCR reaction (200 in sample)
[29] = heparin 40 ng/μL final in PCR reaction (1000 in sample)

OC[C@H]1O[C@@](CO)(O[C@H]2O[C@H](CO)[C@@H](O)[C@H](O)[C@H]2O)[C@@H](O)[C@@H]1O [Sucrose, sucrose]
% RT (reverse transcription activity relative to activity in absence of substance) [1, 2]: 133.445%
Raw Activity (RT product band intensity) [1, 2]: 7.94 DLU
% RT (reverse transcription activity relative to activity in absence of substance) [1, 3]: 158.487%
Raw Activity (RT product band intensity) [1, 3]: 9.43 DLU
% RT (reverse transcription activity relative to activity in absence of substance) [1, 4]: 171.933%
Raw Activity (RT product band intensity) [1, 4]: 10.23 DLU
% RT (reverse transcription activity relative to activity in absence of substance) [1, 5]: 159.832%
Raw Activity (RT product band intensity) [1, 5]: 9.51 DLU
% RT (reverse transcription activity relative to activity in absence of substance) [1, 6]: 155.798%
Raw Activity (RT product band intensity) [1, 6]: 9.27 DLU
% RT (reverse transcription activity relative to activity in absence of substance) [1, 7]: 119.328%
Raw Activity (RT product band intensity) [1, 7]: 7.1 DLU
% RT (reverse transcription activity relative to activity in absence of substance) [1, 8]: 96.1345%
Raw Activity (RT product band intensity) [1, 8]: 5.72 DLU
effect on the efficiency of reverse transcription ([1]; up to 1.2 % W/V sucrose final, 48° C. for 30 minutes): does not inhibit
concentration that inhibits PCR efficiency (Taq polymerase): 0.004 % w/v
% PCR (Taq polymerase; [9]): 102%
Raw Activity (quantity of PCR product) (Taq polymerase; [9]): 10.2 ng of DNA
% PCR (Taq polymerase; [10]): 66.6%
Raw Activity (quantity of PCR product) (Taq polymerase; [10]): 6.66 ng of DNA
% PCR (Taq polymerase; [11]): 67%
Raw Activity (quantity of PCR product) (Taq polymerase; [11]): 6.7 ng of DNA
% PCR (Taq polymerase; [12]): 61%
Raw Activity (quantity of PCR product) (Taq polymerase; [12]): 6.1 ng of DNA
% PCR (Taq polymerase; [13]): 65.7%
Raw Activity (quantity of PCR product) (Taq polymerase; [13]): 6.57 ng of DNA
% PCR (Taq polymerase; [14]): 66.7%
Raw Activity (quantity of PCR product) (Taq polymerase; [14]): 6.67 ng of DNA
% PCR (Taq polymerase; [15]): 72.6%
Raw Activity (quantity of PCR product) (Taq polymerase; [15]): 7.26 ng of DNA

heparin
concentration that significantly inhibits reverse transcription efficiency ([1]; final concentration in RT reaction): ≥ 0.32 ng/µL
% RT (reverse transcription activity relative to activity in absence of substance) [1, 16]: 108.01%
Raw Activity (RT product band intensity) [1, 16]: 10.79 DLU
% RT (reverse transcription activity relative to activity in absence of substance) [1, 17]: 101.8%
Raw Activity (RT product band intensity) [1, 17]: 10.17 DLU
% RT (reverse transcription activity relative to activity in absence of substance) [1, 18]: 93.293%
Raw Activity (RT product band intensity) [1, 18]: 9.32 DLU
% RT (reverse transcription activity relative to activity in absence of substance) [1, 19]: 72.573%
Raw Activity (RT product band intensity) [1, 19]: 7.25 DLU
% RT (reverse transcription activity relative to activity in absence of substance) [1, 20]: 3.6036%
Raw Activity (RT product band intensity) [1, 20]: 0.36 DLU
% RT (reverse transcription activity relative to activity in absence of substance) [1, 21]: 0.6006%
Raw Activity (RT product band intensity) [1, 21]: 0.06 DLU
% RT (reverse transcription activity relative to activity in absence of substance) [1, 22]: 0.8008%
Raw Activity (RT product band intensity) [1, 22]: 0.08 DLU
concentration that inhibits PCR efficiency (Taq polymerase): 0.012 ng/µL
% PCR (Taq polymerase; [23]): 107.69%
Raw Activity (quantity of PCR product) (Taq polymerase; [23]): 0.002 11.2 ng of DNA
% PCR (Taq polymerase; [24]): 75.962%
Raw Activity (quantity of PCR product) (Taq polymerase; [24]): 7.9 ng of DNA
% PCR (Taq polymerase; [25]): 29.808%
Raw Activity (quantity of PCR product) (Taq polymerase; [25]): 3.1 ng of DNA
% PCR (Taq polymerase; [26]): 0%
Raw Activity (quantity of PCR product) (Taq polymerase; [26]): 0 ng of DNA
% PCR (Taq polymerase; [27]): 0%
Raw Activity (quantity of PCR product) (Taq polymerase; [27]): 0 ng of DNA
% PCR (Taq polymerase; [28]): 0%
Raw Activity (quantity of PCR product) (Taq polymerase; [28]): 0 ng of DNA
% PCR (Taq polymerase; [29]): 0%
Raw Activity (quantity of PCR product) (Taq polymerase; [29]): 0 ng of DNA
